Source: ChEMBL document CHEMBL3872220, “Amphiphilic xanthones as a potent chemical entity of anti-mycobacterial agents with membrane-targeting properties” (Eur J Med Chem, 2016)
≈ marks a conversion by molar mass, not a printed value.

Tests used:
Type in all cases: functional
[1] = test system: Mycobacterium tuberculosis; assay: Antimycobacterial activity against rifampicin, streptomycin and ethambutol resistant Mycobacterium tuberculosis clinical isolate 01;005 assessed as reduction in 2 log10 bacterial colonies measured after 14 to 21 days by agar dilution method
[2] = test system: Mycobacterium tuberculosis; assay: Antimycobacterial activity against isoniazid, streptomycin and ethambutol resistant Mycobacterium tuberculosis clinical isolate 01;104 assessed as reduction in 2 log10 bacterial colonies measured after 14 to 21 days by agar dilution method
[3] = test system: Mycobacterium tuberculosis variant bovis BCG; assay: Bactericidal activity against Mycobacterium bovis BCG ATCC 35734 assessed as log reduction in bacterial colonies at 2 times MIC measured at 9 hrs by time-kill assay

Structure (SMILES) | MIC [1] | MIC [2] | Activity [3]
COc1c(OCCCCN2CCOCC2)cc2oc3cc(OCCCCN4CCOCC4)c(CC=C(C)C)c(O)c3c(=O)c2c1CC=C(C)C | 8 µg/mL (≈ 11.5 µM) | 4 µg/mL (≈ 5.77 µM) | 
CCN(CC)CCCCOc1cc2oc3cc(OCCCCN(CC)CC)c(OC)c(CC=C(C)C)c3c(=O)c2c(O)c1CC=C(C)C | 8 µg/mL (≈ 12 µM) | 4 µg/mL (≈ 6.02 µM) | 
CCCN(CCC)CCCCOc1cc2oc3cc(OCCCCN(CCC)CCC)c(OC)c(CC=C(C)C)c3c(=O)c2c(O)c1CC=C(C)C |  |  | 2.8
